The subject of the data set is Dkk1-LRP5-TCF-Luciferase. The data set is described as follows: Functional Dkk1-LRP5-TCF-Luciferase Assay in U2OS Cells. To be noted: for EC50 / fold induction at 2 µM / fold induction at 20 µM: Homo sapiens, U2OS; for fold induction at 2 µM: read-out: B = TCF ACTIVITY/DMSO CONTROL Fold induction @ 2.0 uM, 2.0 uM compound; for fold induction at 20 µM: read-out: C = TCF ACTIVITY/DMSO CONTROL Fold induction @ 20.0 uM, 20.0 uM compound; for A = MAX FOLD Induction/DMSO CONTROL: maximum fold induction over DMSO control.

The EC50 is the concentration that produces a half-maximal response. A lower EC50 goes with higher potency in that assay. For the molecule `NCC1CCCN(c2nccc(-c3ccc4ccccc4c3)n2)C1` (centres unmarked) [({1-[4-(2-naphthyl)pyrimidin-2-yl]piperidin-3-yl}methyl)amine], the EC50 came out at 2.68 µM, the fold induction at 2 µM turned out to be 2.9, the fold induction at 20 µM was found to be 0.005 and the “A = MAX FOLD Induction/DMSO CONTROL” value worked out at 5.433 fold.

For the molecule `NCC1CCN(c2nccc(-c3ccc4ccccc4c3)n2)CC1` [({1-[4-(2-naphthyl)pyrimidin-2-yl]piperidin-4-yl}methyl)amine], a half-maximal response (EC50) required 1.98 µM, the fold induction at 2 µM came to 2.23, the fold induction at 20 µM came out at 0.143 and the “A = MAX FOLD Induction/DMSO CONTROL” value is 3.390 fold.

Regarding `CC(C)C(=O)N(C)CCN(C)[C@@H]1CCN(c2nccc(-c3ccc4ccccc4c3)n2)C1` [N,2-dimethyl-N-[2-(methyl{(3R)-1-[4-(2-naphthyl)pyrimidin-2-yl]pyrrolidin-3-yl}amino)ethyl]propanamide], the fold induction at 20 µM was 1.5.

Turning to `CN(CCN(C)S(=O)(=O)N(C)C)[C@@H]1CCN(c2nccc(-c3ccc4ccccc4c3)n2)C1` [N,N,N′-trimethyl-N′-[2-(methyl{(3R)-1-[4-(2-naphthyl)pyrimidin-2-yl]pyrrolidin-3-yl}amino)ethyl]sulfamide], the fold induction at 2 µM was 1.3.

For `CN(C)CCN(C)[C@@H]1CCN(c2nccc(-c3ccc4ccccc4c3)n2)C1` [N,N,N′-trimethyl-N′-{(3R)-1-[4-(2-naphthyl)pyrimidin-2-yl]pyrrolidin-3-yl}ethane-1,2-diamine], the fold induction at 2 µM amounted to 2.4.

On to `CN(C)CCCN(C)[C@@H]1CCN(c2nccc(-c3ccc4ccccc4c3)n2)C1` [N,N,N′-trimethyl-N′-{(3R)-1-[4-(2-naphthyl)pyrimidin-2-yl]pyrrolidin-3-yl}propane-1,3-diamine], for which the fold induction at 2 µM amounted to 1.3.

Take `CN(C)CCN(C)[C@H]1CCN(c2nccc(-c3ccc4ccccc4c3)n2)C1` [N,N,N′-trimethyl-N′-{(3S)-1-[4-(2-naphthyl)pyrimidin-2-yl]pyrrolidin-3-yl}ethane-1,2-diamine]: the fold induction at 2 µM is 1.2.

For `CN(C)CCCN(C)[C@H]1CCN(c2nccc(-c3ccc4ccccc4c3)n2)C1` [N,N,N′-trimethyl-N′-{(3S)-1-[4-(2-naphthyl)pyrimidin-2-yl]pyrrolidin-3-yl}propane-1,3-diamine], the fold induction at 2 µM worked out at 2.

In the case of `CCN(CC)C1CCN(c2nccc(-c3ccc4ccccc4c3)n2)C1` (centres unmarked) [N,N-diethyl-1-[4-(2-naphthyl)pyrimidin-2-yl]pyrrolidin-3-amine], the EC50 worked out at 28.2 µM, the fold induction at 2 µM worked out at 1.06, the fold induction at 20 µM came to 2.67 and the “A = MAX FOLD Induction/DMSO CONTROL” value was 3.680 fold.

On to `CCN(CC)c1nccc(-c2ccc3ccccc3c2)n1` [N,N-diethyl-4-(2-naphthyl)pyrimidin-2-amine], for which the fold induction at 2 µM amounted to 1.75, the fold induction at 20 µM was determined as 1.68 and the “A = MAX FOLD Induction/DMSO CONTROL” value is 1.260 fold.

Take `CCN(CC)C(=O)N1CCC(CNc2nccc(-c3ccc4ccccc4c3)n2)CC1` [N,N-diethyl-4-({[4-(2-naphthyl)pyrimidin-2-yl]amino}methyl)piperidine-1-carboxamide]: the fold induction at 2 µM worked out at 1.22 and the fold induction at 20 µM came out at 1.04.

As to `CCN(CC)C(=O)N1CCCN(c2nccc(-c3ccc4ccccc4c3)n2)CC1` [N,N-diethyl-4-[4-(2-naphthyl)pyrimidin-2-yl]-1,4-diazepane-1-carboxamide], the 50% effective concentration (EC50) was found to be 30 µM, the fold induction at 20 µM was found to be 1.49 and the “A = MAX FOLD Induction/DMSO CONTROL” value was 3.070 fold.

With `CCN(CC)C(=O)N1CCC(Nc2nccc(-c3ccc4ccccc4c3)n2)CC1` [N,N-diethyl-4-{[4-(2-naphthyl)pyrimidin-2-yl]amino}piperidine-1-carboxamide], the fold induction at 2 µM turned out to be 1.65.

`CCN(CC)C(=O)N1CCC(N(C)c2nccc(-c3ccc4ccccc4c3)n2)CC1` [N,N-diethyl-4-{methyl[4-(2-naphthyl)pyrimidin-2-yl]amino}piperidine-1-carboxamide]: the fold induction at 2 µM came to 0.86 and the fold induction at 20 µM was 1.32.

On to `CCN(CC)C(=O)NCCC1CCN(c2nccc(-c3ccc4ccccc4c3)n2)CC1` [N,N-diethyl-N′-(2-{1-[4-(2-naphthyl)pyrimidin-2-yl]piperidin-4-yl}ethyl)urea], for which the fold induction at 2 µM is 1.13 and the fold induction at 20 µM was 0.33.

Take `CCN(CC)C(=O)N[C@@H]1CCN(c2nccc(-c3ccc4ccccc4c3)n2)C1` [N,N-diethyl-N′-{(3R)-1-[4-(2-naphthyl)pyrimidin-2-yl]pyrrolidin-3-yl}urea]: the fold induction at 2 µM is 1.22, the fold induction at 20 µM was found to be 1.8 and the “A = MAX FOLD Induction/DMSO CONTROL” value worked out at 1.270 fold.

Take `CCN(CC)C(=O)N[C@H]1CCN(c2nccc(-c3ccc4ccccc4c3)n2)C1` [N,N-diethyl-N′-{(3S)-1-[4-(2-naphthyl)pyrimidin-2-yl]pyrrolidin-3-yl}urea]: the fold induction at 2 µM stood at 1.83.

In the case of `CN(C)C(=O)[C@H]1CCCN1c1nccc(-c2ccc3ccccc3c2)n1` [N,N-dimethyl-1-[4-(2-naphthyl)pyrimidin-2-yl]-D-prolinamide], the fold induction at 2 µM stood at 1.02 and the fold induction at 20 µM is 1.2.

Turning to `CN(C)C(=O)[C@@H]1CCCN1c1nccc(-c2ccc3ccccc3c2)n1` [N,N-dimethyl-1-[4-(2-naphthyl)pyrimidin-2-yl]-L-prolinamide], the fold induction at 2 µM was found to be 1 and the fold induction at 20 µM is 1.24.

In the case of `CN(C)C1CCN(c2nccc(-c3ccc4ccccc4c3)n2)C1` (centres unmarked) [N,N-dimethyl-1-[4-(2-naphthyl)pyrimidin-2-yl]pyrrolidin-3-amine], the EC50 was found to be 4.11 µM, the fold induction at 2 µM came to 2, the fold induction at 20 µM came out at 1.91 and the “A = MAX FOLD Induction/DMSO CONTROL” value came out at 5.503 fold.

With `CN(C)CC1CCN(c2nccc(-c3ccc4ccccc4c3)n2)CC1` [N,N-dimethyl-1-{1-[4-(2-naphthyl)pyrimidin-2-yl]piperidin-4-yl}methanamine], the fold induction at 2 µM is 1.85.

In the case of `CN(C)C[C@H]1CCN(c2nccc(-c3ccc4ccccc4c3)n2)C1` [N,N-dimethyl-1-{(3R)-1-[4-(2-naphthyl)pyrimidin-2-yl]pyrrolidin-3-yl}methanamine], a half-maximal response (EC50) required 1.02 µM, the fold induction at 2 µM was determined as 2.83, the fold induction at 20 µM was determined as 0.01 and the “A = MAX FOLD Induction/DMSO CONTROL” value is reported as 3.620 fold.

In the case of `CN(C)C[C@@H]1CCN(c2nccc(-c3ccc4ccccc4c3)n2)C1` [N,N-dimethyl-1-{(3S)-1-[4-(2-naphthyl)pyrimidin-2-yl]pyrrolidin-3-yl}methanamine], the fold induction at 2 µM came to 2.26, the fold induction at 20 µM worked out at 2.26 and the “A = MAX FOLD Induction/DMSO CONTROL” value was found to be 3.620 fold.

For the molecule `CN(C)CCN1CCN(c2nccc(-c3ccc4ccccc4c3)n2)CC1` [N,N-dimethyl-2-{4-[4-(2-naphthyl)pyrimidin-2-yl]piperazin-1-yl}ethanamine], the fold induction at 2 µM is 2.55, the fold induction at 20 µM is 0.01 and the “A = MAX FOLD Induction/DMSO CONTROL” value worked out at 2.440 fold.

As to `CN(C)S(=O)(=O)N1CC(CNc2nccc(-c3ccc4ccccc4c3)n2)C1` [N,N-dimethyl-3-({[4-(2-naphthyl)pyrimidin-2-yl]amino}methyl)azetidine-1-sulfonamide], the fold induction at 2 µM was 1.47 and the fold induction at 20 µM is 1.14.

As to `CN(C)CCCN1CCN(c2nccc(-c3ccc4ccccc4c3)n2)CC1` [N,N-dimethyl-3-{4-[4-(2-naphthyl)pyrimidin-2-yl]piperazin-1-yl}propan-1-amine], the fold induction at 2 µM came to 1.87.

Regarding `CN(C)C(=O)N1CCC(CNc2nccc(-c3ccc4ccccc4c3)n2)CC1` [N,N-dimethyl-4-({[4-(2-naphthyl)pyrimidin-2-yl]amino}methyl)piperidine-1-carboxamide], the fold induction at 2 µM worked out at 0.87 and the fold induction at 20 µM stood at 1.24.

As for `CN(C)S(=O)(=O)N1CCC(CNc2nccc(-c3ccc4ccccc4c3)n2)CC1` [N,N-dimethyl-4-({[4-(2-naphthyl)pyrimidin-2-yl]amino}methyl)piperidine-1-sulfonamide], the fold induction at 20 µM was 1.21.

With `CN(C)C(=O)N1CCCN(c2nccc(-c3ccc4ccccc4c3)n2)CC1` [N,N-dimethyl-4-[4-(2-naphthyl)pyrimidin-2-yl]-1,4-diazepane-1-carboxamide], the fold induction at 2 µM was found to be 1.2, the fold induction at 20 µM is 2.26 and the “A = MAX FOLD Induction/DMSO CONTROL” value turned out to be 1.520 fold.

Consider `CN(C)S(=O)(=O)N1CCCN(c2nccc(-c3ccc4ccccc4c3)n2)CC1` [N,N-dimethyl-4-[4-(2-naphthyl)pyrimidin-2-yl]-1,4-diazepane-1-sulfonamide], for which the fold induction at 20 µM amounted to 0.63.

In the case of `CN(C)C(=O)N1CCC(Nc2nccc(-c3ccc4ccccc4c3)n2)CC1` [N,N-dimethyl-4-{[4-(2-naphthyl)pyrimidin-2-yl]amino}piperidine-1-carboxamide], the EC50 came out at 0.64 µM, the fold induction at 2 µM was 1.13, the fold induction at 20 µM amounted to 1.58 and the “A = MAX FOLD Induction/DMSO CONTROL” value was 1.810 fold.

Consider `CN(C)S(=O)(=O)N1CCC(Nc2nccc(-c3ccc4ccccc4c3)n2)CC1` [N,N-dimethyl-4-{[4-(2-naphthyl)pyrimidin-2-yl]amino}piperidine-1-sulfonamide], for which a half-maximal response (EC50) required 12 µM, the fold induction at 2 µM was determined as 0.97, the fold induction at 20 µM was 1.75 and the “A = MAX FOLD Induction/DMSO CONTROL” value stood at 3.210 fold.

On to `CN(C)C(=O)N1CCC(N(C)c2nccc(-c3ccc4ccccc4c3)n2)CC1` [N,N-dimethyl-4-{methyl[4-(2-naphthyl)pyrimidin-2-yl]amino}piperidine-1-carboxamide], for which the fold induction at 2 µM was 1.37 and the fold induction at 20 µM amounted to 0.68.

For the origin of these results see US20090054392A1, “NAPHTHYLPYRIMIDINE, NAPHTHYLPYRAZINE AND NAPHTHYLPYRIDAZINE ANALOGS AND THEIR USE AS AGONISTS OF THE WNT-BETA-CATENIN CELLULAR MESSAGING SYSTEM” (Wyeth, priority 2007, published 2009).
